Assay [1] is filed under the species Rattus norvegicus. Nature of the assay: Ability to stimulate PI (phospho inositol) metabolism in rat cerebral cortex at 100 uM concentration. The class given is functional.
The target in assay [2] is Muscarinic acetylcholine receptor.
Description: Inhibition of [3H](R)-QNB binding to muscarinic receptor in rat brain membranes
The species entered for assay [3] is Rattus norvegicus. Put plainly: Compound was evaluated for its ability to stimulate PI (phospho inositol) metabolism in the rat hippocampal slices. Type of assay: functional, Hippocampus.
The species named for assay [4] is Rattus norvegicus. Put plainly: tissue or blood. To be noted: Hippocampus.
Description: Effective concentration to stimulate PI (phospho inositol) metabolism in the rat hippocampal slices
The species entered for assay [5] is Rattus norvegicus. Nature of the assay: cells. To be noted: Hippocampus.
Description: Inhibition of PI (phospho inositol) response in rat hippocampus by the selective antagonist pirenzepine in the presence of 50 uM concentration of the compound
For assay [6], the species on record is Rattus norvegicus. Nature of the assay: cells. To be noted: Hippocampus. The source holds these as a separate data set.
Description: Inhibition of PI (phospho inositol) response in rat hippocampus by the selective antagonist AF-DX 116 in the presence of 50 uM concentration of the compound
The species entered for assay [7] is Rattus norvegicus. Nature of the assay: Compound was evaluated for its ability to stimulate PI (phospho inositol) metabolism in the rat hippocampal slices, the 50% effective concentration was reported. Type of assay: functional. Conditions: Hippocampus.

For `CCCOC(=O)C1CN=CNC1.Cl` (centres undefined), the Activity in assay [1] came to 7.1.

In turn, `CCOC(=O)C1CN=CNC1.Cl` (centres undefined) had an Activity in assay [1] of 150.

In assay [1], `C[N+](C)(C)CCOC(N)=O.[Cl-]` [CARBACHOL] displayed an Activity of 580.

On to `CC(=O)OC1CN=CNC1.Cl` (centres undefined), for which, in assay [2], the IC50 stood at 32000 nM. In addition, in assay [1], the Activity is on record as 45. Besides, in assay [3], the Stimulation is reported as 70%.

Consider `CC(=O)OC1CN2CCC1CC2` (centres undefined) [ACECLIDINE], for which, in assay [4], the midpoint of the response, the EC50, lay at 21000 nM. Besides, the IC50 was determined as 120 nM in assay [5] and 280 nM in assay [6]. Moreover, the Stimulation in assay [3] was 300%.

Consider `C#CCOC(=O)C1CN=CNC1.Cl` (centres undefined), for which, in assay [1], the Activity stood at 230.

`Cl.O=C(OCc1ccccc1)C1CN=CNC1` (centres undefined) gave an IC50 in assay [2] of 2600 nM. This molecule also gave an Activity in assay [1] of 3.5.

Consider `COC(=O)C1CN=CNC1.Cl` (centres undefined), for which the IC50 in assay [5] came to 44 nM; in assay [6], 750 nM. This molecule also came in with an Activity in assay [1] of 130. In assay [7], this molecule gave an EC50 of 55000 nM. This molecule also yielded a Stimulation in assay [3] of 240%.

In assay [1], `CC(C)OC(=O)C1CN=CNC1.Cl` (centres undefined) returned an Activity of 7.2.

A word on the IC50: it is the concentration that gives 50% inhibition. The low end stands for higher potency, the high end for lower potency. The EC50 is the concentration needed to bring the measured effect to its halfway point.

For the origin of these results see ChEMBL document CHEMBL1126439, “Synthesis, biochemical activity and behavioral effects of a series of 1,4,5,6-tetrahydropyrimidines as novel ligands for M1 receptors” (Bioorg Med Chem Lett, 1992).
